Read-outs that look alike come from different tables or passages of the source. Each block holds one compound with its values, some of them ahead of it.
What was measured:
R. oryzae CBM21 = settings: cited from earlier work
Text: (§1) The same two sugar-binding sites have been identified in the crystal structures of Rhizopus oryzae CBM21[13],[14]; site II is the primary binding site, while site I has been hypothesized to contribute to the binding of long-chain soluble polysaccharides and insoluble starch or to the relaxation and unwinding of helical amylose[15],[16].

GM CBM21 = settings: cited from earlier work
Text: as §1

[1] = biological target: T1, PTG CBM21 (residues 132–264) (Homo sapiens, UniProt Q9UQK1); assay: ITC titration of PTG CBM21 with β-cyclodextrin; format: binding; settings: 25 °C
T1 sequence (Q9UQK1 132-264): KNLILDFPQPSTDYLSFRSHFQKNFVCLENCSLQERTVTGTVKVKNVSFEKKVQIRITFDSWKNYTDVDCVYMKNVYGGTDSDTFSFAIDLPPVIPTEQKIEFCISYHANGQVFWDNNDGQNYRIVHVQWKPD
Procedure: ITC experiments were performed using an ITC 200 microcalorimeter (Malvern Panalytical, UK) at 25 °C with a stirring speed of 750 rpm in 25 mM Hepes pH 7.4, 0.2 M NaCl, 5% glycerol with 180 s separating the injections. β-cyclodextrin was dissolved in the running buffer and two datasets were collected, one with PTG CBM21 concentration at 100 μM and β-cyclodextrin at 3 mM with 40 injections of 1 µl, the other at 200 μM and 4 mM, respectively, with 80 injections of 1 µl. A blank run with only the buffer was carried out. Data analysis was done with ORIGIN subtracting the blank titrations fitting ‘one site’ and ‘two sites’ models.

PTG132-264 (CBM) = biological target: T2, PTG132-264 (CBM) (Homo sapiens, UniProt Q9UQK1); assay: GCI binding kinetics of β-cyclodextrin on immobilized PTG; settings: 25 °C, 10 mM Hepes pH 7.2, 150 mM NaCl, 0.005% Tween 20, 1:3 dilutions from 500 µM
T2 sequence (Q9UQK1 132-264): T1 sequence (Q9UQK1 132-264)
Procedure: (§2) Grating-coupled interferometry (GCI) experiments were performed using the Creoptix WAVE system, a new generation instrument for the high-sensitivity kinetics and affinity analysis of label-free molecular interactions based on the waveguide interferometry technology. Waveguide interferometry exceeds the sensitivity levels of Surface Plasmon Resonance (SPR). […] GCI allows getting high resolution even at very low signal levels with low noise without artificial data averaging and reliable kinetics below 1 pg/mm^2. By the lower immobilization levels that are required, it avoids mass transport limitations. It covers the broadest kinetic range with the capability of analyzing of the ultra-fast transition times (i.e. 150 ms). It allows the reliable determination of off-rates of 5 s^–1 and even faster, enabling off-rate screening of weakly binding analytes. GCI can be applied to a wide range of pharmacological targets, with improved results on very low molecular weight compounds, to the dimensions of metal ions[56].
(§3) WAVE chips are composed of four channels or cells. Borate buffer (100 mM sodium borate pH 9.0, 1 M NaCl) was used for chip conditioning. […]
(§4) Supplementary Figure 3: Quantitative binding kinetics by GCI. […]

PP1 = assay: Literature binding of GM constructs to PP1; settings: GM 64–105 (KD 114 nM, ref 12) compared with the corresponding PTG peptide
PP1 7-330 = biological target: T3, PP1 7-330 (Homo sapiens, UniProt P62136); assay: GCI binding kinetics of PTG-derived peptides on captured PP1; settings: 25 °C, 6xHis-PP1 7-330 captured on NTA chip, peptide 1:2 dilutions from 300 nM
T3 construct: reversibly capturing 6xHis-tagged PP1^7-330; host or cells: E. coli BL21 (DE3) pGro7
T3 sequence (P62136 7-330): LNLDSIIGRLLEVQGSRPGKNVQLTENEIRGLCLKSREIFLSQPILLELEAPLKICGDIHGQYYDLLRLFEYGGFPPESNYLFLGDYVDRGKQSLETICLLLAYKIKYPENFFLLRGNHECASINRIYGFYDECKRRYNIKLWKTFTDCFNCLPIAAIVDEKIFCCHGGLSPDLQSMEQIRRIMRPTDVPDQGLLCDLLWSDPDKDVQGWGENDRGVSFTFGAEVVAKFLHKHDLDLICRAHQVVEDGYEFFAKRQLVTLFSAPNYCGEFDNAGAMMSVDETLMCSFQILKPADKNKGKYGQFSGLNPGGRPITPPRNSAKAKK
Procedure: as §2, §3, §4

[2] = 'two sites' model with stoichiometry fixed, average of two runs
[3] = 'two sites' model, average of two runs
[4] = 'two sites' model, average of two separate runs

Kd ([1]; 25 mM Hepes pH 7.4, 0.2 M NaCl, 5% glycerol, 'one site' model, average of two separate runs, read-out: KD (KD1), 1 Site model): 59 ± 5 µM | ΔS1, 1 Site model ([1]; 'one site' model, average of two separate runs): -53 cal mol-1 K-1 | N (stoichiometry), 1 Site model ([1]; 'one site' model, average of two separate runs, listed as b-cyclodextrin): 1.09 | Kd ([1]; 'two sites' model with stoichiometry fixed (N 1.0 each site), average of two runs, read-out: KD1, 2 Sites fixed model, first site): 49 ± 4 µM | ΔH1, 2 Sites fixed model, first site [1, 2]: -24.6 ± 0.7 kcal/mol | ΔS1, 2 Sites fixed model, first site [1, 2]: -62 cal mol-1 K-1 | ΔS2, 2 Sites fixed model, second site [1, 2]: 21 cal mol-1 K-1 | Kd ([1]; 'two sites' model with stoichiometry fixed, average of two runs, spread ± 154, site spurious or ancillary, read-out: KD2, 2 Sites fixed model, second site): 346 µM | ΔH2, 2 Sites model, second site [1, 3]: -16 ± 2 kcal/mol | ΔS2, 2 Sites model, second site [1, 3]: -29 cal mol-1 K-1 | N2, 2 Sites model, second site ([1]; 'two sites' model, average of two runs, paper calls second-site stoichiometry inconsistent): 0.3 | Kd ([1]; 'two sites' model, average of two runs, second site judged inconsistent, read-out: KD2, 2 Sites model, second site): 3 ± 2 µM | N1, 2 Sites model, first site [1, 4]: 1.06 | ΔH1, 2 Sites model, first site [1, 4]: -18 ± 4 kcal/mol | ΔS1, 2 Sites model, first site [1, 4]: -40 cal mol-1 K-1 | Kd ([1]; 'two sites' model, average of two separate runs, read-out: KD1, 2 Sites model, first site): 63 ± 6 µM | Kd (PTG132-264 (CBM)): 37 ± 7 µM
Compound: OC[C@H]1O[C@@H]2O[C@H]3[C@H](O)[C@@H](O)[C@@H](O[C@H]4[C@H](O)[C@@H](O)[C@@H](O[C@H]5[C@H](O)[C@@H](O)[C@@H](O[C@H]6[C@H](O)[C@@H](O)[C@@H](O[C@H]7[C@H](O)[C@@H](O)[C@@H](O[C@H]8[C@H](O)[C@@H](O)[C@@H](O[C@H]1[C@H](O)[C@H]2O)O[C@@H]8CO)O[C@@H]7CO)O[C@@H]6CO)O[C@@H]5CO)O[C@@H]4CO)O[C@@H]3CO [β-cyclodextrin]
Kd (R. oryzae CBM21): 5.1 µM | Kd (GM CBM21): 8.2 µM

times weaker PP1 binding than measured for PTG (PP1): ~15 times
Compound: GM peptide 64–105: GM (PPP1R3A) peptide 64–105, corresponding to PTG 84–131; literature comparator (VSFADSFGFNLVSVKEFDCWELPSASTTFDLGTDIFHTEEYV; UniProt Q16821 64-105, looked up, fragment)

KD by GCI for binding to PP1 (PP1 7-330): almost halved
Compound: PTG81-132: extended PTG peptide, residues 81–132, including RVVF and SALK sequences; ProteoGenix SAS (AKKRVVFADSKGLSLTAIHVFSDLPEEPAWDLQFDLLDLNDISSALKHHEEK)

Reference: article PMC9582199, “Molecular architecture of the glycogen- committed PP1/PTG holoenzyme” (Nature Communications, 2022)
